These results are taken from EP0258782A2, “Use of 1-(substituted mercapto-hydroxyethyl)-triazoles in the treatment of illnesses” (BAYER AG, priority 1986, dated 1988).

One experiment relates to Aspergillus fumigatus. Nature of the experiment: Antimycotic in-vitro activity, serial dilution test (MIC). In kind it is cell-based. The settings on record: Sabouraud's milieu d'epreuve, 28-37 °C, 96 h, inoculum 5 x 10^3 to 10^4 germs/ml, read-out: MHK-Werte in γ/ml Nährmedium, Aspergillus fumigatus. The procedure:
(§1) Die in-vitro-Prüfungen wurden im Reihenverdünnungstest mit Keiminokula von durchschnittlich 5 x 10³ bis 10⁴ Keimen/ml Substrat durchgeführt. Als Nähmedium dienten • a) für Dermatophyten und Schimmelpilze: Sabouraud's milieu d'epreuve • b) für Hefen: Fleischextrakt-Traubenzucker-Bouillon.
(§2) Die Bebrütungstemperatur betrug 28 °C bis 37 °C, die Bebrütungsdauer lag bei 24 bis 96 Stunden bei Hefen und 96 Stunden bei Dermatophyten und Schimmelpilzen.

The test system of a further experiment is Candida albicans. The experiment is described as above. Type of experiment: cell-based. The settings on record: Fleischextrakt-Traubenzucker-Bouillon, 28-37 °C, 24-96 h, inoculum 5 x 10^3 to 10^4 germs/ml, read-out: MHK-Werte in γ/ml Nährmedium, Candida albicans. Here is the method:
as §1, §2

A further experiment concerns Microsporum canis. Described as above. To be noted: Sabouraud's milieu d'epreuve, 28-37 °C, 96 h, inoculum 5 x 10^3 to 10^4 germs/ml, read-out: MHK-Werte in γ/ml Nährmedium, Microsporum canis. In kind it is cell-based. Here is the method:
as §1, §2

Another experiment relates to Torulopsis glabrata. Described as above. Type of experiment: cell-based. The settings on record: Nakaseomyces glabratus; Fleischextrakt-Traubenzucker-Bouillon; 28-37 °C, 24-96 h; inoculum 5 x 10^3 to 10^4 germs/ml; read-out: MHK-Werte in γ/ml Nährmedium, Torulopsis glabrata. Here is the method:
as §1, §2

For another experiment, the system named is Trichophyton mentagr. The experiment is described as above. Type of experiment: cell-based. The settings on record: Sabouraud's milieu d'epreuve, 28-37 °C, 96 h, inoculum 5 x 10^3 to 10^4 germs/ml, read-out: MHK-Werte in γ/ml Nährmedium, Trichophyton mentagr. Here is the method: as §1, §2
Another experiment deals with Candida-Zellen. Nature of the experiment: Antimycotic in-vivo activity (oral) in mouse candidosis. Also on record: species or system Mäuse vom Typ SPF-CF1. To be noted: for Wirkung (Überlebende am 6. Tag p.i.): mice infected i.v. with Candida, 25-100 mg/kg oral, 1 h before and 7 h after infection; for Wirkung compared with (A) and (B): mouse candidosis, oral, statement in words. The procedure: Mäuse vom Typ SPF-CF₁ wurden intravenös mit 1 - 2 x 10⁶ logarithmisch wachsenden Candida-Zellen, die in physiologischer Kochsalzlösung suspendiert werden, infiziert. Eine Stunde vor und sieben Stunden nach der Infektion werden die Tiere mit jeweils 25 - 100 mg/kg Körpergewicht der Präparate oral behandelt.
Unbehandelte Tiere starben 3 bis 6 Tage post infektionem. Die Überlebensrate am 6.Tag post infektionem betrug bei unbehandelten Kontrolltieren etwa 5 %.

Experiment [1] concerns Trichophyton mentagrophytes. Nature of the experiment: In-vivo activity (local) in experimental guinea pig trichophytosis. Set-up: species or system Meerschweinchen der Rasse Pirbright-white. From the text:
Weiße Meerschweinchen der Rasse Pirbright-white wurden auf dem geschorenen, nicht skarifizierten Rücken mit einer Mikro- und Makrokoniden-Suspension von Trichophyton mentagrophytes infiziert.
Die infizierten Tiere wurden beginnend mit dem 3.Tag p.i. 1 x täglich mit einer 0,1 %igen Lösung der erdingungsgemäßen Präparate (in Dimethylsulfoxid : Glycerin = 1 : 4) lokal behandelt.
Bei unbehandelten Tieren entwickelte sich innerhalb von 12 Tagen p.i. das Typische Bild einer Dermatophytose mit Rötung, Schuppung und Haarausfall bis zum totalen Integument-Defekt an der Infektionsstelle.

Converted amounts (≈) assume the structure as drawn.

Take `CCSCC(O)(Cn1cncn1)C(C)(C)Cc1ccc(F)cc1` (stereo not drawn) [I-2]: the MIC in the experiment with Aspergillus fumigatus was 2 µg/mL (≈ 5.93 µM); in the experiment with Candida albicans it was below 1 µg/mL; in the experiment on Microsporum canis it was 2 µg/mL (≈ 5.93 µM); in the experiment on Torulopsis glabrata, 4 µg/mL (≈ 11.9 µM); with Trichophyton mentagr., below 1 µg/mL.
As for `CC(C)SCC(O)(Cn1cncn1)C(C)(C)Cc1ccc(Br)cc1` (stereo not drawn) [I-40], the MIC with Aspergillus fumigatus is below 1 µg/mL; in the experiment with Candida albicans it was below 1 µg/mL; with Microsporum canis, 2 µg/mL (≈ 4.85 µM); with Torulopsis glabrata, below 1 µg/mL; with Trichophyton mentagr. it was below 1 µg/mL. In the experiment with Candida-Zellen, the “Wirkung (Überlebende am 6. Tag p.i.)” value is given as “+++ (= Wirkung = 60 % Überlebende am 6.Tag.p.i.)”. In addition, the “Wirkung compared with (A) and (B)” value with Candida-Zellen was “bessere Wirkung”. In experiment [1] (0,1 % solution in Dimethylsulfoxid : Glycerin = 1 : 4, local, once daily from day 3 p.i.), the “Wirkung (Infektionszeichen)” value is listed as “++++ (gute Wirkung = geringe Rötung, vereinzelt Schuppen)”. In experiment [1] (guinea pig trichophytosis, local, 0,1 % solution, statement in words), the “Wirkung (in words)” value is recorded as “gute”.
For `CCCSCC(O)(Cn1cncn1)C(C)(C)Cc1ccc(Cl)cc1` (stereo not drawn) [I-41], the MIC in the experiment on Aspergillus fumigatus was below 1 µg/mL; in the experiment on Candida albicans, below 1 µg/mL; in the experiment on Microsporum canis, below 1 µg/mL; in the experiment on Torulopsis glabrata, 4 µg/mL (≈ 10.9 µM); with Trichophyton mentagr., below 1 µg/mL.
`CSCC(O)(Cn1cncn1)C(C)(C)Cc1ccc(Cl)cc1` (stereo not drawn) [I-42]: the MIC with Aspergillus fumigatus is below 1 µg/mL; in the experiment with Candida albicans it was below 1 µg/mL; with Microsporum canis, below 1 µg/mL; in the experiment with Torulopsis glabrata, 8 µg/mL (≈ 23.5 µM); in the experiment on Trichophyton mentagr., below 1 µg/mL.
Take `CC(C)CSCC(O)(Cn1cncn1)C(C)(C)Cc1ccc(Cl)cc1` (stereo not drawn) [I-43]: the MIC is below 1 µg/mL in the experiment on Aspergillus fumigatus; below 1 µg/mL in the experiment with Candida albicans; below 1 µg/mL in the experiment on Microsporum canis; 4 µg/mL (≈ 10.5 µM) in the experiment on Torulopsis glabrata; below 1 µg/mL with Trichophyton mentagr..
`C=CCSCC(O)(Cn1cncn1)C(C)(C)Cc1ccc(Cl)cc1` (stereo not drawn) [I-44]: the MIC in the experiment on Aspergillus fumigatus is below 1 µg/mL; in the experiment with Candida albicans, below 1 µg/mL; with Microsporum canis, below 1 µg/mL; in the experiment with Torulopsis glabrata, 4 µg/mL (≈ 10.9 µM); in the experiment with Trichophyton mentagr., below 1 µg/mL.
Turning to `CCSCC(O)(Cn1cncn1)C(C)(C)Cc1ccc(Cl)cc1` (stereo not drawn) [I-45], the MIC in the experiment with Aspergillus fumigatus is below 1 µg/mL; in the experiment on Candida albicans it was 2 µg/mL (≈ 5.65 µM); in the experiment on Microsporum canis it was below 1 µg/mL; in the experiment with Torulopsis glabrata, 2 µg/mL (≈ 5.65 µM); with Trichophyton mentagr. it was below 1 µg/mL.
With `CC(C)SCC(O)(Cn1cncn1)C(C)(C)Cc1ccc(Cl)cc1` (stereo not drawn) [I-46], the MIC is below 1 µg/mL in the experiment on Aspergillus fumigatus; below 1 µg/mL with Candida albicans; 4 µg/mL (≈ 10.9 µM) in the experiment with Microsporum canis; below 1 µg/mL in the experiment with Torulopsis glabrata; below 1 µg/mL in the experiment on Trichophyton mentagr.. Besides, in the experiment with Candida-Zellen, the “Wirkung (Überlebende am 6. Tag p.i.)” value is on record as “++ (= schwache Wirkung = 40 % Überlebende am 6.Tag.p.i.)”. The “Wirkung compared with (A) and (B)” value with Candida-Zellen is listed as “bessere Wirkung”.
In the case of `CCCCSCC(O)(Cn1cncn1)C(C)(C)Cc1ccc(Cl)cc1` (stereo not drawn) [I-47], the MIC was below 1 µg/mL in the experiment with Aspergillus fumigatus; 2 µg/mL (≈ 5.24 µM) in the experiment on Candida albicans; 4 µg/mL (≈ 10.5 µM) in the experiment on Microsporum canis; 4 µg/mL (≈ 10.5 µM) in the experiment with Torulopsis glabrata; below 1 µg/mL in the experiment with Trichophyton mentagr..
As for `CCCSCC(O)(Cn1cncn1)C(C)(C)Cc1ccc(C)cc1` (stereo not drawn) [I-49], the MIC with Aspergillus fumigatus was below 1 µg/mL; with Candida albicans it was below 1 µg/mL; in the experiment with Microsporum canis, 2 µg/mL (≈ 5.75 µM); with Torulopsis glabrata, 2 µg/mL (≈ 5.75 µM); with Trichophyton mentagr. it was below 1 µg/mL.
As to `CCSCC(O)(Cn1cncn1)C(C)(C)Cc1ccc(C)cc1` (stereo not drawn) [I-50], the MIC was below 1 µg/mL with Aspergillus fumigatus; below 1 µg/mL in the experiment with Candida albicans; below 1 µg/mL in the experiment on Microsporum canis; 4 µg/mL (≈ 12 µM) in the experiment on Torulopsis glabrata; below 1 µg/mL in the experiment on Trichophyton mentagr..
With `CCCSCC(O)(Cn1cncn1)C(C)(C)Cc1ccc(OC(F)(F)F)cc1` (stereo not drawn) [I-51], the MIC in the experiment with Aspergillus fumigatus, with Candida albicans, with Microsporum canis, with Torulopsis glabrata and in the experiment with Trichophyton mentagr. was below 1 µg/mL throughout. Further, the “Wirkung (Überlebende am 6. Tag p.i.)” value in the experiment on Candida-Zellen is “++ (= schwache Wirkung = 40 % Überlebende am 6.Tag.p.i.)”. For the same compound, the “Wirkung compared with (A) and (B)” value in the experiment with Candida-Zellen is listed as “bessere Wirkung”.
As for `CCCSCC(O)(Cn1cncn1)C(C)(C)Cc1ccc(F)cc1` (stereo not drawn) [I-53], the MIC with Aspergillus fumigatus was below 1 µg/mL; with Candida albicans, below 1 µg/mL; with Microsporum canis it was 2 µg/mL (≈ 5.69 µM); with Torulopsis glabrata, 2 µg/mL (≈ 5.69 µM); in the experiment on Trichophyton mentagr., below 1 µg/mL.
`CC(C)SCC(O)(Cn1cncn1)C(C)(C)Cc1ccc(F)cc1` (stereo not drawn) [I-55]: the MIC with Aspergillus fumigatus is 2 µg/mL (≈ 5.69 µM); in the experiment on Candida albicans, 2 µg/mL (≈ 5.69 µM); in the experiment with Microsporum canis, 2 µg/mL (≈ 5.69 µM); in the experiment on Torulopsis glabrata, 2 µg/mL (≈ 5.69 µM); in the experiment on Trichophyton mentagr., below 1 µg/mL.
